Measured values reported in US20260262643A1, “HERBICIDAL BENZOXAZINES” (FMC CORPORATION, priority 2022, published 2026).

How the values were obtained:
barnyardgrass [1] = assay: Test C preemergence; format: in vivo, Echinochloa crusgalli; settings: 0 to 100 scale (0 no effect, 100 complete control); for Plant response rating, Barnyardgrass: Preemergence, visual rating after 10 days
From the text: (§1) Seeds of plant species selected from barnyardgrass (Echinochloa crusgalli), blackgrass (Alopecurus myosuroides), corn (Zea mays), foxtail, giant (giant foxtail, Setaria faberi), green foxtail (Setaria viridis), goosegrass (Eleusine indica), kochia (Bassia scoparia), oat, wild (wild oat, Avena fatua), pigweed, palmer (palmer amaranth, palmer pigweed, Amaranthus palmeri), Pigweed, Redroot (redroot pigweed, Amaranthus retroflexus), ragweed (common ragweed, Ambrosia artemisiifolia), ryegrass, Italian ([…] ryegrass, Lolium multiflorum), soybean (Glycine max), and wheat (Triticum aestivum) were planted into a blend of loam soil and sand and treated preemergence with a directed soil spray using test chemicals formulated in a non-phytotoxic solvent mixture which included a surfactant. At the same time, plants selected from these crops and weed species and also galium (catchweed bedstraw, Galium aparine) and horseweed (Erigeron canadensis) were planted in pots containing the same blend of loam soil and sand and treated with postemergence applications of test chemicals formulated in the same manner. Plants ranged in height from 2 to 10 cm and were in the one- to two-leaf stage for the postemergence treatment. Treated plants and untreated controls were maintained in a greenhouse for 10 days, after which time all treated plants were compared to untreated controls and visually evaluated for injury. Plant response ratings, summarized in Table C, are based on a 0 to 100 scale where 0 is no effect and 100 is complete control. A dash (-) response means no test result.

blackgrass [2] = assay: Test C preemergence; format: in vivo, Alopecurus myosuroides; settings: 0 to 100 scale (0 no effect, 100 complete control); for Plant response rating, Blackgrass: Preemergence, visual rating after 10 days
From the text: as §1

green foxtail [3] = assay: Test C preemergence; format: in vivo, Setaria viridis; settings: 0 to 100 scale (0 no effect, 100 complete control); for Plant response rating, Foxtail, Green: Preemergence, visual rating after 10 days
From the text: as §1

kochia [4] = assay: Test C preemergence; format: in vivo, Bassia scoparia; settings: 0 to 100 scale (0 no effect, 100 complete control); for Plant response rating, Kochia: Preemergence, visual rating after 10 days
From the text: as §1

pigweed, palmer [5] = assay: Test C preemergence; format: in vivo, Amaranthus palmeri; settings: 0 to 100 scale (0 no effect, 100 complete control); for Plant response rating, Pigweed, Palmer: Preemergence, visual rating after 10 days
From the text: as §1

ryegrass, Italian [6] = assay: Test C preemergence; format: in vivo, Lolium multiflorum; settings: 0 to 100 scale (0 no effect, 100 complete control); for Plant response rating, Ryegrass, Italian: Preemergence, visual rating after 10 days
From the text: as §1

barnyardgrass [7] = assay: Test C postemergence; format: in vivo, Echinochloa crusgalli
From the text: as §1

blackgrass [8] = assay: Test C postemergence; format: in vivo, Alopecurus myosuroides; settings: 10 days
From the text: as §1

green foxtail [9] = assay: Test C postemergence; format: in vivo, Setaria viridis; settings: Postemergence, 1000 g ai/ha, 10 days, visual 0 to 100 scale (0 no effect, 100 complete control)
From the text: as §1

kochia [10] = assay: Test C postemergence; format: in vivo, Bassia scoparia; settings: 10 days
From the text: as §1

pigweed, palmer [11] = assay: Test C postemergence; format: in vivo, Amaranthus palmeri; settings: 10 days
From the text: as §1

ragweed [12] = assay: Test C postemergence; format: in vivo, Ambrosia artemisiifolia; settings: 10 days
From the text: as §1

ryegrass, Italian [13] = assay: Test C postemergence; format: in vivo, Lolium multiflorum; settings: 10 days
From the text: as §1

galium = assay: Test C postemergence; format: in vivo, Galium aparine; settings: 10 days
From the text: as §1

horseweed = assay: Test C postemergence; format: in vivo, Erigeron canadensis; settings: 10 days
From the text: as §1

ragweed [14] = assay: Test C preemergence; format: in vivo, Ambrosia artemisiifolia; settings: 0 to 100 scale (0 no effect, 100 complete control); for Plant response rating, Ragweed: Preemergence, visual rating after 10 days
From the text: as §1

corn [15] = assay: Test C preemergence; format: in vivo, Zea mays; settings: 0 to 100 scale (0 no effect, 100 complete control)
From the text: as §1

oat, wild [16] = assay: Test C preemergence; format: in vivo, Avena fatua; settings: 0 to 100 scale (0 no effect, 100 complete control)
From the text: as §1

soybean [17] = assay: Test C preemergence; format: in vivo, Glycine max; settings: 0 to 100 scale (0 no effect, 100 complete control)
From the text: as §1

wheat [18] = assay: Test C preemergence; format: in vivo, Triticum aestivum; settings: 0 to 100 scale (0 no effect, 100 complete control)
From the text: as §1

corn [19] = assay: Test C postemergence; format: in vivo, Zea mays; settings: 10 days
From the text: as §1

oat, wild [20] = assay: Test C postemergence; format: in vivo, Avena fatua; settings: 10 days
From the text: as §1

soybean [21] = assay: Test C postemergence; format: in vivo, Glycine max; settings: 10 days
From the text: as §1

wheat [22] = assay: Test C postemergence; format: in vivo, Triticum aestivum; settings: 10 days
From the text: as §1

[23] = Postemergence, 1000 g ai/ha, 0 to 100 scale, 0 no effect, 100 complete control
[24] = Postemergence, 1000 g ai/ha, visual 0 to 100 scale (0 no effect, 100 complete control)
[25] = Test C, preemergence, 125 g ai/ha
[26] = Preemergence, 500 g ai/ha, visual rating after 10 days
[27] = 125 g ai/ha, postemergence, 0 to 100 scale, 0 no effect, 100 complete control
[28] = Postemergence, 500 g ai/ha, visual 0 to 100 scale (0 no effect, 100 complete control)

Cc1cc(-c2cccc(C(=O)N3C[C@H](C)Oc4c(C)cccc43)c2)cs1 [Compound 246]
Plant response rating, Barnyardgrass (barnyardgrass [1]; 1000 g ai/ha): 0
Plant response rating, Blackgrass (blackgrass [2]; 1000 g ai/ha): 0
Plant response rating, Foxtail, Green (green foxtail [3]; 1000 g ai/ha): 0
Plant response rating, Kochia (kochia [4]; 1000 g ai/ha): 0
Plant response rating, Pigweed, Palmer (pigweed, palmer [5]; 1000 g ai/ha): 0
Plant response rating, Ryegrass, Italian (ryegrass, Italian [6]; 1000 g ai/ha): 30
Plant response rating, Barnyardgrass (barnyardgrass [7]; [23]): 0
Plant response rating, Blackgrass (blackgrass [8]; [24]): 0
Plant response rating, Foxtail, Green (green foxtail [9]): 0
Plant response rating, Kochia (kochia [10]; [24]): 20
Plant response rating, Pigweed, Palmer (pigweed, palmer [11]; [24]): 0
Plant response rating, Ragweed (ragweed [12]; [24]): 30
Plant response rating, Ryegrass, Italian (ryegrass, Italian [13]; [24]): 0
Plant response rating, Galium (galium; [24]): 0
Plant response rating, Horseweed (horseweed; [24]): 30

C[C@H]1CN(C(=O)c2cccc(-n3cccc3)c2)c2cccc(Cl)c2O1 [Compound 222]
Plant response rating, Barnyardgrass (barnyardgrass [1]; 1000 g ai/ha): 50
Plant response rating, Blackgrass (blackgrass [2]; 1000 g ai/ha): 70
Plant response rating, Foxtail, Green (green foxtail [3]; 1000 g ai/ha): 100
Plant response rating, Kochia (kochia [4]; 1000 g ai/ha): 20
Plant response rating, Pigweed, Palmer (pigweed, palmer [5]; 1000 g ai/ha): 50
Plant response rating, Ragweed (ragweed [14]; 1000 g ai/ha): 0
Plant response rating, Ryegrass, Italian (ryegrass, Italian [6]; 1000 g ai/ha): 70
Plant response rating, Barnyardgrass (barnyardgrass [7]; [23]): 20
Plant response rating, Blackgrass (blackgrass [8]; [24]): 50
Plant response rating, Foxtail, Green (green foxtail [9]): 40
Plant response rating, Kochia (kochia [10]; [24]): 60
Plant response rating, Pigweed, Palmer (pigweed, palmer [11]; [24]): 60
Plant response rating, Ragweed (ragweed [12]; [24]): 0
Plant response rating, Ryegrass, Italian (ryegrass, Italian [13]; [24]): 50
Plant response rating, Horseweed (horseweed; [24]): 0

Cc1cccc2c1O[C@@H](C)CN2C(=O)c1cccc(-c2cn(C)nn2)c1 [Compound 247]
Plant response rating, Barnyardgrass (barnyardgrass [1]; 1000 g ai/ha): 0
Plant response rating, Blackgrass (blackgrass [2]; 1000 g ai/ha): 0
Plant response rating, Foxtail, Green (green foxtail [3]; 1000 g ai/ha): 0
Plant response rating, Kochia (kochia [4]; 1000 g ai/ha): 0
Plant response rating, Ragweed (ragweed [14]; 1000 g ai/ha): 0
Plant response rating, Ryegrass, Italian (ryegrass, Italian [6]; 1000 g ai/ha): 30
Plant response rating, Barnyardgrass (barnyardgrass [7]; [23]): 10
Plant response rating, Blackgrass (blackgrass [8]; [24]): 0
Plant response rating, Foxtail, Green (green foxtail [9]): 30
Plant response rating, Kochia (kochia [10]; [24]): 0
Plant response rating, Pigweed, Palmer (pigweed, palmer [11]; [24]): 10
Plant response rating, Ragweed (ragweed [12]; [24]): 0
Plant response rating, Ryegrass, Italian (ryegrass, Italian [13]; [24]): 0
Plant response rating, Galium (galium; [24]): 20
Plant response rating, Horseweed (horseweed; [24]): 20

Cc1cccc2c1O[C@@H](C)CN2C(=O)c1cccc(-n2cnc(N(C)C)n2)c1 [Compound 226]
Plant response rating, Barnyardgrass (barnyardgrass [1]; 500 g ai/ha): 90
Barnyardgrass plant response rating (barnyardgrass [1]; [25]): 50
Plant response rating, Blackgrass (blackgrass [2]; 500 g ai/ha): 60
Blackgrass plant response rating (blackgrass [2]; [25]): 30
Plant response rating, Corn (corn [15]; [26]): 0
Corn plant response rating (corn [15]; [25]): 0
Plant response rating, Foxtail, Green (green foxtail [3]; 500 g ai/ha): 100
Foxtail, Green plant response rating (green foxtail [3]; [25]): 100
Plant response rating, Kochia (kochia [4]; 500 g ai/ha): 90
Kochia plant response rating (kochia [4]; [25]): 50
Plant response rating, Oat, Wild (oat, wild [16]; [26]): 60
Oat, Wild plant response rating (oat, wild [16]; [25]): 40
Plant response rating, Pigweed, Palmer (pigweed, palmer [5]; 500 g ai/ha): 90
Pigweed, Palmer plant response rating (pigweed, palmer [5]; [25]): 50
Plant response rating, Ragweed (ragweed [14]; 500 g ai/ha): 20
Ragweed plant response rating (ragweed [14]; [25]): 20
Plant response rating, Ryegrass, Italian (ryegrass, Italian [6]; 500 g ai/ha): 70
Ryegrass, Italian plant response rating (ryegrass, Italian [6]; [25]): 70
Plant response rating, Soybean (soybean [17]; [26]): 30
Soybean plant response rating (soybean [17]; [25]): 20
Plant response rating, Wheat (wheat [18]; [26]): 10
Wheat plant response rating (wheat [18]; [25]): 0
Plant response rating, Barnyardgrass (barnyardgrass [7]; 125 g ai/ha, postemergence, 10 days, 0 to 100 scale, 0 no effect, 100 complete control): 50
Plant response rating, Barnyardgrass (barnyardgrass [7]; Postemergence, 500 g ai/ha, 10 days, visual 0 to 100 scale (0 no effect, 100 complete control)): 80
Plant response rating, Blackgrass (blackgrass [8]; [27]): 60
Plant response rating, Blackgrass (blackgrass [8]; [28]): 90
Plant response rating, Corn (corn [19]; [27]): 20
Plant response rating, Corn (corn [19]; [28]): 60
Plant response rating, Kochia (kochia [10]; [27]): 70
Plant response rating, Kochia (kochia [10]; [28]): 80
Plant response rating, Oat, Wild (oat, wild [20]; [27]): 10
Plant response rating, Oat, Wild (oat, wild [20]; [28]): 60
Plant response rating, Pigweed, Palmer (pigweed, palmer [11]; [27]): 40
Plant response rating, Pigweed, Palmer (pigweed, palmer [11]; [28]): 80
Plant response rating, Ragweed (ragweed [12]; [27]): 30
Plant response rating, Ragweed (ragweed [12]; [28]): 60
Plant response rating, Ryegrass, Italian (ryegrass, Italian [13]; [27]): 50
Plant response rating, Ryegrass, Italian (ryegrass, Italian [13]; [28]): 90
Plant response rating, Soybean (soybean [21]; [27]): 100
Plant response rating, Soybean (soybean [21]; [28]): 100
Plant response rating, Wheat (wheat [22]; [27]): 10
Plant response rating, Wheat (wheat [22]; [28]): 30
Plant response rating, Galium (galium; [27]): 80
Plant response rating, Galium (galium; [28]): 100
Plant response rating, Horseweed (horseweed; [27]): 10
Plant response rating, Horseweed (horseweed; [28]): 30
